# In patent US11242337B2, “Compounds useful for treating gastrointestinal tract disorders” (Ardelyx, Inc., priority 2017, dated 2022):
# Read-outs that look alike come from different tables or passages of the source.
# Experiments:
# [1] = test system: absorption of sodium from the intestinal lumen; experiment: Inhibition of intestinal sodium absorption in mice; format: in vivo; conditions: CD-1 mice, 15 mg/kg oral gavage twice daily; for Fecal fluid content (Δ from vehicle): day 3, change from vehicle group mean; for response vs control in vivo at 15 mg/kg: Mus musculus, 72 h, day 3, normalized to dietary sodium intake
# Outline: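 Male ~8-week CD-1 mice on chow with added 0.4% inorganic phosphorous, in metabolic cages after 3-day acclimation and 24-hr baseline collection. Urine sodium by ion chromatography, dried fecal sodium by MP-AES; day-3 24-hour excretion normalized to dietary sodium intake and expressed as % of vehicle mean; diarrhea and fecal fluid also recorded.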
# [2] = test system: human duodenum monolayer culture; experiment: Increased trans-epithelial resistance (TEER) in human organoid monolayer cell cultures; format: cell-based; conditions: 1 μM apical, baseline corrected
# Method: Basal media (B consisted of advanced DMEM/F12 containing 10 mM HEPES (Invitrogen, 15630-080), 1:100 Glutamax (Invitrogen, 35050-061), and 1:100 penicillin/streptomycin (Invitrogen, 15140-122). Supplemented basal media (SBM) contained 1:100 N2 (Invitrogen, 17502-048), 1:50 B27 (Invitrogen, 12587-010), 1 mM N-acetylcysteine (Sigma, A9165), and 10 nM [Leu15]-gastrin I (Sigma, G9145). Growth factors used included 50 ng per mL mouse EGF (Peprotech, 315-09), 100 ng per mL mouse noggin (Peprotech, 250-38), 500 ng per mL human R-spondin 1 (R&D, 4645-RS), 100 ng per mL mouse Wnt-3a (R&D, 1324-WN), 20 μM Y-27632 (Tocris, 1254), 10 mM nicotinamide (Sigma, N0636), 500 nM A83-01 (Tocris, 2939), 10 μM SB202190 (Tocris, 1264). Transwells were 0.4 μm pore polyester membrane 24-well Transwell inserts (Corning). Cultures were incubated at 37° C. in 5% CO2.
# Human duodenum organoids were cultured in WENRNAS (Wnt, EGF, noggin, R-spondin1, Nicotinamide, A83-01, SB202190) and typically grown for 7-12 days before being used to plate monolayer cultures. On day 0, organoid cultures embedded in Matrigel were treated with TrypLE Express to break organoids into small pieces and/or single cells. The cells were resuspended to 0.5×10^6 cells/mL in SBM containing WENRAY (Wnt, EGF, noggin, R-spondin1, A83-01, Y-27632). Following this step, 200 μL of cell suspension was plated into the apical side of a 24-well Transwell (100,000 cells/well) and 600 μL of SBM with WENRAY was added to the basolateral side. Duodenum cells were differentiated with ENA (EGF, noggin, A83-01) on day 3. The color of apical compartment turns from pink or orange to yellow due to the increase in NHE3 expression after differentiation.
# Each human duodenum monolayer culture well was washed twice with fresh SBM on the apical side on day 6 or day 7 before dosing. All compound stocks were 10 mM dissolved DMSO. Each compound stock was individually mixed with fresh SBM to reach final compound concentration 1 μM and dosed only on the apical side of the monolayer (total volume 200 μl). DMSO at the equivalent concentration was used as the vehicle control. Duplicate wells were dosed for each compound. Transepithelial electrical resistance (TEER) was used as a quantitative technique to measure of tight junction permeability. TEER values were recorded (MERS00002, Millipore) before dosing and 30 mins and 1 hr after dosing for all wells. Each of the duplicate TEER values following treatment were corrected for the individual well baseline TEER. Baseline corrected TEER for each example compound was compared to the average of the DMSO wells and expressed as a percent TEER of vehicle control.
# [3] = read-out: Fecal Na Excretion (% of vehicle)
# [4] = read-out: Urinary Na Excretion (% of vehicle)
# [5] = 1 hr after dosing, read-out: TEER at 60 minutes (% of Vehicle)
# [6] = 0.5 h, 30 mins after dosing, read-out: TEER at 30 minutes (% of Vehicle)
SMILES,Fecal fluid content (Δ from vehicle) [1],"response vs control in vivo at 15 mg/kg [1, 3] [%]","response vs control in vivo at 15 mg/kg [1, 4] [%]","activity at 1 µM [2, 5] [%]","activity at 1 µM [2, 6] [%]"
"Cc1cc(S(=O)(=O)NCCOCCOCCNC(=O)NCCCCNC(=O)NCCOCCOCCNS(=O)(=O)c2ccc(O[C@H]3c4cc(Cl)cc(C)c4C[C@@H]3N(C)C)c(C)c2)ccc1O[C@H]1c2cc(Cl)cc(C)c2C[C@@H]1N(C)C [Example 17, 3-[2-(2-[2-[(4-[[(1S,2S)-6-Chloro-2-(dimethylamino)-4-methyl-2,3-dihydro-1H-inden-1-yl]oxy]-3-methylbenzene)sulfonamido]ethoxy]ethoxy)ethyl]-1-[4-([[2-(2-[2-[(4-[[(1S,2S)-6-chloro-2-(dimethylamino)-4-methyl-2,3-dihydro-1H-inden-1-yl]oxy]-3-methylbenzene)sulfonamido]ethoxy]ethoxy)ethyl]carbamoyl]amino)butyl]urea]",B (5-10),150 to 200,50 to 70,100 to 130,100 to 130
"Cc1cc(Cl)cc2c1C[C@H](N(C)C)[C@H]2Oc1ccc(S(=O)(=O)NCCOCCOCCNC(=O)NCCCCNC(=O)NCCOCCOCCNS(=O)(=O)c2ccc(O[C@H]3c4cc(Cl)cc(C)c4C[C@@H]3N(C)C)c(F)c2)cc1F [Example 24, 3-[2-(2-[2-[(4-[[(1S,2S)-6-Chloro-2-(dimethylamino)-4-methyl-2,3-dihydro-1H-inden-1-yl]oxy]-3-fluorobenzene)sulfonamido]ethoxy]ethoxy)ethyl]-1-[4-([[2-(2-[2-[(4-[[(1S,2S)-6-chloro-2-(dimethylamino)-4-methyl-2,3-dihydro-1H-inden-1-yl]oxy]-3-fluorobenzene)sulfonamido]ethoxy]ethoxy)ethyl]carbamoyl]amino)butyl]urea]",A (<5),> 200,50 to 70,100 to 130,100 to 130
"Cc1cc(Cl)cc2c1C[C@H](N1CCC[C@@H](N(C)C)C1)[C@H]2Oc1ccc(S(=O)(=O)NCCOCCOCCNC(=O)NCCCCNC(=O)NCCOCCOCCNS(=O)(=O)c2ccc(O[C@H]3c4cc(Cl)cc(C)c4C[C@@H]3N3CCC[C@@H](N(C)C)C3)c(F)c2)cc1F [Example 30, 3-[2-(2-[2-[(4-[[(1S,2S)-6-Chloro-2-[(3R)-3-(dimethylamino)piperidin-1-yl]-4-methyl-2,3-dihydro-1H-inden-1-yl]oxy]-3-fluorobenzene)sulfonamido]ethoxy]ethoxy)ethyl]-1-[4-([[2-(2-[2-[(4-[[(1S,2S)-6-chloro-2-[(3R)-3-(dimethylamino)piperidin-1-yl]-4-methyl-2,3-dihydro-1H-inden-1-yl]oxy]-3-fluorobenzene)sulfonamido]ethoxy]ethoxy)ethyl]carbamoyl]amino)butyl]urea; bis(trifluoroacetic acid)]",C (>10),> 200,50 to 70,100 to 130,100 to 130
"O=C(NCCCCNC(=O)NCCOCCN1CC[C@@H](NS(=O)(=O)c2ccc(O[C@H]3c4cc(Cl)cc(Cl)c4C[C@@H]3N3CCNCC3)c(F)c2)C1)NCCOCCN1CC[C@@H](NS(=O)(=O)c2ccc(O[C@H]3c4cc(Cl)cc(Cl)c4C[C@@H]3N3CCNCC3)c(F)c2)C1 [Example 105, 4-([(1S,2S)-4,6-Dichloro-2-(piperazin-1-yl)-2,3-dihydro-1H-inden-1-yl]oxy)-N—[(R)-1-(20-[(R)-3-([4-([(1S2S)-4,6-dichloro-2-(piperazin-1-yl)-2,3-dihydro-1H-inden-1-yl]oxy)-3-fluorophenyl]sulfonamido)pyrrolidin-1-yl]-7,14-dioxo-3,18-dioxa-6,8,13,15-tetraazaicosyl)pyrrolidin-3-yl]-3-fluorobenzenesulfonamide; tetra(trifluoroacetate)]",,,,> 130,> 130
"O=C(NCCCCNC(=O)NCCOCCN1CC[C@H](NS(=O)(=O)c2ccc(O[C@H]3c4cc(Cl)cc(Cl)c4C[C@@H]3N3CCNCC3)c(F)c2)C1)NCCOCCN1CC[C@H](NS(=O)(=O)c2ccc(O[C@H]3c4cc(Cl)cc(Cl)c4C[C@@H]3N3CCNCC3)c(F)c2)C1 [Example 106, 4-([(1S,2S)-4,6-Dichloro-2-(piperazin-1-yl)-2,3-dihydro-1H-inden-1-yl]oxy)-N—[(S)-1-(20-[(S)-3-([4-([(1S,2S)-4,6-dichloro-2-(piperazin-1-yl)-2,3-dihydro-1H-inden-1-yl]oxy)-3-fluorophenyl]sulfonamido)pyrrolidin-1-yl]-7,14-dioxo-3,18-dioxa-6,8,13,15-tetraazaicosyl)pyrrolidin-3-yl]-3-fluorobenzenesulfonamide; tetra(trifluoroacetate)]",,,,> 130,> 130
"N#Cc1cc(Cl)cc2c1C[C@H](N1CCNCC1)[C@H]2Oc1ccc(S(=O)(=O)N[C@H]2CCN(CCOCCNC(=O)NCCCCNC(=O)NCCOCCN3CC[C@H](NS(=O)(=O)c4ccc(O[C@H]5c6cc(Cl)cc(C#N)c6C[C@@H]5N5CCNCC5)cc4)C3)C2)cc1 [Example 107, 4-([(1S,2S)-6-Chloro-4-cyano-2-(piperazin-1-yl)-2,3-dihydro-1H-inden-1-yl]oxy)-N—[(S)-1-(20-[(S)-3-([4-([(1S,2S)-6-chloro-4-cyano-2-(piperazin-1-yl)-2,3-dihydro-1H-inden-1-yl]oxy)phenyl]sulfonamido)pyrrolidin-1-yl]-7,14-dioxo-3,18-dioxa-6,8,13,15-tetraazaicosyl)pyrrolidin-3-yl]benzenesulfonamide; tetra(trifluoroacetate)]",,,,100 to 130,> 130
"N#Cc1cc(Cl)cc2c1C[C@H](N1CCNCC1)[C@H]2Oc1ccc(S(=O)(=O)N[C@H]2CCN(CCOCCNC(=O)NCCCCNC(=O)NCCOCCN3CC[C@H](NS(=O)(=O)c4ccc(O[C@H]5c6cc(Cl)cc(C#N)c6C[C@@H]5N5CCNCC5)c(F)c4)C3)C2)cc1F [Example 110, 4-([(1S,2S)-6-Chloro-4-cyano-2-(piperazin-1-yl)-2,3-dihydro-1H-inden-1-yl]oxy)-N—[(S)-1-(20-[(S)-3-[(4-([(1S,2S)-6-chloro-4-cyano-2-(piperazin-1-yl)-2,3-dihydro-1H-inden-1-yl]oxy)-3-fluorophenyl)sulfonamide)pyrrolidin-1-yl]-7,14-dioxo-3,18-dioxa-6,8,13,15-tetraazaicosyl)pyrrolidin-3-yl]-3-fluorobenzenesulfonamide; tetra(trifluoroacetate)]",,,,100 to 130,> 130
N#Cc1cc(Cl)cc2c1C[C@H](N1CCNCC1)[C@H]2Oc1ccc(S(=O)(=O)NC2CCN(C(=O)CCCNC(=O)NCCCCNC(=O)NCCCC(=O)N3CCC(NS(=O)(=O)c4ccc(O[C@H]5c6cc(Cl)cc(C#N)c6C[C@@H]5N5CCNCC5)cc4)CC3)CC2)cc1 [Example 115],,,,100 to 130,100 to 130
"N#Cc1cc(Cl)cc2c1C[C@H](N1CCCNCC1)[C@H]2Oc1ccc(S(=O)(=O)N[C@H]2CCN(CCOCCNC(=O)NCCCCNC(=O)NCCOCCN3CC[C@H](NS(=O)(=O)c4ccc(O[C@H]5c6cc(Cl)cc(C#N)c6C[C@@H]5N5CCCNCC5)cc4)C3)C2)cc1 [Example 126, 4-([(1S,2S)-6-Chloro-4-cyano-2-(1,4-diazepan-1-yl)-2,3-dihydro-1H-inden-1-yl]oxy)-N—[(S)-1-(20-[(S)-3-([4-([(1S,2S)-6-chloro-4-cyano-2-(1,4-diazepan-1-yl)-2,3-dihydro-1H-inden-1-yl]oxy)phenyl]sulfonamido)pyrrolidin-1-yl]-7,14-dioxo-3,18-dioxa-6,8,13,15-tetraazaicosyl)pyrrolidin-3-yl]benzenesulfonamide]",,,,100 to 130,100 to 130
